Laboratory results published in patent publication US6774121B1, “Phospholipid prodrugs of anti-proliferative drugs” (D-Pharm, Ltd., priority 1999, dated 2004).
Values joined by “and” are separate entries in the source; they are usually repeats but may differ in a detail not shown here. Equal values may be shown once.

Legend:
Du148 = assay: MTT cytotoxicity on tumor cell lines, Du148 (Example 8); assay type: cell-based; conditions: Du148, Prostate cancer (human), 72 hours
Description: (§1) Cell viability was analyzed after 72 hours incubation (37° C., 5% CO2) using the colorimetric MTT assay (Mosmann (1983) J. Immunol Methods 65: 55-63).

J774 = assay: MTT cytotoxicity on tumor cell lines, J774 (Example 8); assay type: cell-based; conditions: J774, Myeloma (mouse), 72 hours
Description: as §1

[1] = test system: Friend cells (an erythroleukemic cell line); assay: MTT cytotoxicity, Friend cells (Example 5); assay type: cell-based; conditions: 72 hour
Description: The toxicity of methotrexate derivatives of the invention (DP-MTX) was evaluated in an additional cell-culture system. The doses required to inhibit the growth of cultured Friend cells (an erythroleukemic cell line) by 50%, over a 72 hour period (ED50), were determined using a mitochondrial viability (MTT) endpoint assay.
Friend cells were seeded at a density of 10^4 cells/ml in RPMI medium supplemented with 10% FCS in 96 well plates. The cultured cells were incubated, during their linear growth phase, in the presence and absence of various concentrations of MTX derivatives. After 72 hours at 37° C., cell viability was estimated by using the colorimetric MTT assay.

rat C6 glioma cell line = assay: MTT cell growth inhibition, C6 glioma cells (Example 4); assay type: cell-based; conditions: Rattus norvegicus, C6 glioma; 72 hours, MTT assay; read-out: EC50, nMol C6 glioma
Description: (§2) A series of methotrexate derivatives were screened for their inhibitory effect on cell growth. Three tumor cell lines were used for this screen: i) human leukemia cell line CCRF-CEM which is MTX-sensitive (herein denoted as CEM), ii) a mutant of CEM cell line which is MTX-resistant due to a mutation in the RFC (herein denoted as CEM-MTX; provided by Dr. […], Technion, Israel), and iii) rat C6 glioma cell line. Cells were seeded at a density of 10^4 cells/ml in RPMI medium supplemented with 10% FCS in 96 well plates. The cultured cells were incubated, during their linear growth phase, in the presence and absence of various concentrations of MTX derivatives. The tested compounds were prepared as 1 mM stock in absolute ethanol or DMSO and were diluted into the medium. The highest vehicle presence in the assay was 5% of the vehicle. After 72 hours at 37° C. the cytotoxic effect on the cells was estimated by using the colorimetric MTT assay (Mosmann (1983) J. Immunol Methods 65: 55-63) that measures mitochondrial reductase activity and serves for quantitative assessment of cellular viability. […] The EC50 values were calculated from dose response curves for each tested compound.

C6 = assay: MTT cytotoxicity on tumor cell lines, C6 (Example 8); assay type: cell-based; conditions: C6, Glioma (rat), 72 hours
Description: as §1

N87 = assay: MTT cytotoxicity on tumor cell lines, N87 (Example 8); assay type: cell-based; conditions: N87, Gastric carcinoma (human), 72 hours
Description: as §1

[2] = test system: CEM-MTX (MTX-resistant mutant of CEM, mutation in the RFC); assay: MTT cell growth inhibition, MTX-resistant CEM-MTX cells (Example 4); assay type: cell-based, human; conditions: Homo sapiens; 72 hours, MTT assay; read-out: EC50, nMol CEM-MTX
Description: A series of methotrexate derivatives were screened for their inhibitory effect on cell growth. Three tumor cell lines were used for this screen: i) human leukemia cell line CCRF-CEM which is MTX-sensitive (herein denoted as CEM), ii) a mutant of CEM cell line which is MTX-resistant due to a mutation in the RFC (herein denoted as CEM-MTX; provided by Dr. Y. Assraf, Technion, Israel), and iii) rat C6 glioma cell line.
Cells were seeded at a density of 10^4 cells/ml in RPMI medium supplemented with 10% FCS in 96 well plates. The cultured cells were incubated, during their linear growth phase, in the presence and absence of various concentrations of MTX derivatives. The tested compounds were prepared as 1 mM stock in absolute ethanol or DMSO and were diluted into the medium. The highest vehicle presence in the assay was 5% of the vehicle. After 72 hours at 37° C. the cytotoxic effect on the cells was estimated by using the colorimetric MTT assay (Mosmann (1983) J. Immunol Methods 65: 55-63) that measures mitochondrial reductase activity and serves for quantitative assessment of cellular viability. Drug concentration required for inhibiting the growth of 50% of cell population in culture over a 72 hour period incubation, is defined as EC50.
The EC50 values were calculated from dose response curves for each tested compound.

[3] = test system: RFC-mediated MTX-resistant cell line (L1210-MTX); assay: MTT cytotoxicity, L1210-MTX cells (Example 9); assay type: cell-based; conditions: Mus musculus
L1210 [4] = assay: MTT cytotoxicity, parent L1210 cells (Example 9); assay type: cell-based; conditions: Mus musculus
[5] = test system: L1210 murine leukemia cells; assay: Survival of mice transplanted i.p. with L1210 leukemia cells; assay type: in vivo, mouse
Description: The anti-tumor effects of DP-MTX were evaluated in vivo on mice transplanted with L1210 murine leukemia cells.
Mice of strain B6D2F 1/J (stock number 100006), which are F1 cross of C57/BJ×DBA/2J, were purchased from The Jackson Laboratory (JAX Mice & Mouse Model Related Services, […], USA). Animals were allowed 10 days adjustment time at our animal care facility before initiation of the experiment.
Mice were transplanted with 1×10^6 L1210 (mouse leukemia; ATCC# CCL-219) or L1210MTX (RFC-mediated MTX resistant L1210 mutant; provided by Dr. Y. Assraf, Technion, Israel) cells by injection into the peritoneum (i.p.) (day 1). […] Another group of 8 animals were injected with vehicle solution (2% propylene-glycol, 0.2% Tween-80 in PBS) and serve as control group. […] Mice survival was monitored daily until the end of the experiment on day 21.

Jurkat = assay: MTT cytotoxicity on tumor cell lines, Jurkat (Example 8); assay type: cell-based; conditions: Homo sapiens, T-cell lymphoma, 72 hours
Description: as §1

L1210 cells = assay: Survival of pre-treated mice after L1210 tumor cell implantation; assay type: in vivo, mouse; conditions: pre-treatment 3 mg/Kg or equivalent i.p. every other day for 21 days
Description: Protection against tumor growth was examined in mice pretreated with MTX or DP-MTX-71.
At the end of this regimen, the mice were injected with 1×10^6 L1210 cells into the peritoneum. The animals were then monitored for viability for 12 days subsequent to the injection of the tumor cells.

CEM = assay: MTT cytotoxicity on tumor cell lines, CEM (Example 8); assay type: cell-based; conditions: CCRF-CEM, T-cell ALL (human), 72 hours
Description: as §1

L1210 [6] = assay: MTT cytotoxicity on tumor cell lines, L1210 (Example 8); assay type: cell-based; conditions: L1210, lymphocytic leukemia (mouse), 72 hours
Description: as §1

[7] = test system: human leukemia cell line CCRF-CEM (CEM); assay: MTT cell growth inhibition, CEM cells (Example 4); assay type: cell-based; conditions: Homo sapiens, CCRF-CEM; 72 hours, MTT assay; read-out: EC50, nMol CEM
Description: as §2

SMILES: CN(Cc1cnc2nc(N)nc(N)c2n1)c1ccc(C(=O)N[C@@H](CCC(=O)O)C(=O)O)cc1 [MTX, Methotrexate]
- EC50 (Du148): 29 nM
- EC50 (J774): 112 nM
- ED50 [1]: 10 nmol
- EC50 (rat C6 glioma cell line): 46 nM
- EC50 (C6): 46 nM
- EC50 (N87): 13500 nM
- EC50 [2]: 2540 nM
- EC50 [3]: 1080 nM
- EC50 (L1210 [4]): 14 nM
- mice surviving at the end of the experiment, on day 21 ([5]; 3 mg/Kg MTX or molar equivalent, i.p. every two days, day 3 to 17): one
- mortality caused by the treatment by itself ([5]; 3 mg/Kg i.p.): no mortality
- day on which animal death started ([5]; 3 mg/Kg i.p. every two days, day 3 to 17): 15 days
- EC50 (Jurkat): 21 nM
- Surviving mice (L1210 cells; 9 days after tumor implantation): 6/6
- Surviving mice (L1210 cells; 10 days after tumor implantation): 4/6
- Surviving mice (L1210 cells; 11 days after tumor implantation): 3/6
- Surviving mice (L1210 cells; 12 days after tumor implantation): 2 and 2/6
- EC50 (CEM): 21 nM
- EC50 (L1210 [6]): 13 nM
- EC50 [7]: 21 nM
